The target in assay [1] is Transient receptor potential M8 protein (Canis lupus familiaris, UniProt Q1A7N1). Kind of assay: Antagonist activity at dog TRPM8 expressed in HEK293 cells assessed as inhibition of icilin-induced calcium influx incubated for 5 mins prior to icilin induction measured after 5 mins by fluorescence assay. In kind it is cell-based.
Assay [2] deals with Rattus norvegicus. In words: Anti-cold hypersensitive activity in rat assessed as inhibition of icilin-induced wet-dog shaking at 30 mg/kg, po measured for 10 mins relative to control. In kind it is functional.

In general, IC50 refers to the point on the concentration scale where inhibition reaches its midpoint. For orientation: inhibition in vivo means the relative decrease from the control value, in per cent.

Transient receptor potential M8 protein, sequence (Q1A7N1 whole entry): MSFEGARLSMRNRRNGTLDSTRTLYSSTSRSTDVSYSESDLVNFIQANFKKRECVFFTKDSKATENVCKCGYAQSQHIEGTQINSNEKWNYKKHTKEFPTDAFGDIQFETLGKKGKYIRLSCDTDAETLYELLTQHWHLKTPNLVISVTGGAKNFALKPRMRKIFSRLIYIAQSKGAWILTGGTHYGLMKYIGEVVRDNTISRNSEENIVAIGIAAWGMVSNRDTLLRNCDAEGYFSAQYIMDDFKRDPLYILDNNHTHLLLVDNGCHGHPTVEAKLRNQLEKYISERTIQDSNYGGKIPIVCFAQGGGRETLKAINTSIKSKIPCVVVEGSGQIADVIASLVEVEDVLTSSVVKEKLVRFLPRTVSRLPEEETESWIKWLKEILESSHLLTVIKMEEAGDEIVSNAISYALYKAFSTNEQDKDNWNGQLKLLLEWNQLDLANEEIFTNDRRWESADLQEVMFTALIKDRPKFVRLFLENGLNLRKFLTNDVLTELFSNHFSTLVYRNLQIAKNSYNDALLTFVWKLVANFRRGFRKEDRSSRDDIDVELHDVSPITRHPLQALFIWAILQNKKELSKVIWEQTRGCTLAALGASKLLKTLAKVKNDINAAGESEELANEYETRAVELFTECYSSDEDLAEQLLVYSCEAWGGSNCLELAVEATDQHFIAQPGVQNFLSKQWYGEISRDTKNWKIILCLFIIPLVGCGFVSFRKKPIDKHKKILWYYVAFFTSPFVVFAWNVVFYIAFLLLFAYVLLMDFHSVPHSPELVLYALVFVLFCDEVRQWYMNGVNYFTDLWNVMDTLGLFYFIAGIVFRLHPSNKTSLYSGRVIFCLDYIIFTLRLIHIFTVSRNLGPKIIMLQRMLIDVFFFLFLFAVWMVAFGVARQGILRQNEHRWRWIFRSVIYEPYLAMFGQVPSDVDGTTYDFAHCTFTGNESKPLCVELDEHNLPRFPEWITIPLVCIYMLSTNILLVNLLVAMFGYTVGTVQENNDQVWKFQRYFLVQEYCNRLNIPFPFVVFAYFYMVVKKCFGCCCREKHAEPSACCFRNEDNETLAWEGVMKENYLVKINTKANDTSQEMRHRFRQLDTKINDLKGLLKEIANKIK

For the compound `O=C([C@H](Nc1ccccc1F)c1ccc(C(F)(F)F)cc1)N1CCC[C@H]1c1ccccc1F`, in assay [1], the IC50 came to 45 nM.

For the compound `O=C([C@@H](Nc1ccccc1F)c1ccc(C(F)(F)F)cc1)N1CCC[C@H]1c1ccccc1F`, the inhibition in vivo at 30 mg/kg in assay [2] came to 99%. In assay [1], the IC50 came out at 6 nM.

Take `O=C(C(Nc1ccccc1F)c1ccc(C(F)(F)F)cc1)N1CCC[C@@H]1c1ccccc1` (stereo partly drawn): in assay [1], the IC50 was determined as 43 nM.

For the compound `O=C(O)c1ccc(-c2ccc(C(Nc3ccccc3F)C(=O)N3CCC[C@H]3c3ccccc3F)cc2)cc1` (mixture of isomers), the IC50 in assay [1] was determined as 56 nM.

In the case of `O=C(C(Nc1ccccc1F)c1ccc(-c2cccnc2)cc1)N1CCC[C@H]1c1ccccc1F` (mixture of isomers), the inhibition in vivo at 30 mg/kg in assay [2] is -13%. For the same compound, the IC50 in assay [1] amounted to 7 nM.

Consider `O=C(C(Nc1ccccc1F)c1ccc(Br)cc1)N1CCC[C@H]1c1ccccc1F` (mixture of isomers), for which the 50% inhibitory concentration (IC50) in assay [1] stood at 9 nM.

With `O=C(C(Nc1ccccc1F)c1cc2ccccc2s1)N1CCC[C@H]1c1ccccc1F` (mixture of isomers), the concentration for half-maximal inhibition (IC50) in assay [1] was 3 nM.

As for `O=C(C(Nc1ccccc1F)c1ccc(C(F)(F)F)cc1)N1CCC[C@H]1c1ccccc1Cl` (mixture of isomers), the inhibition in vivo at 30 mg/kg in assay [2] turned out to be 79%. Moreover, the half-maximal inhibitory concentration (IC50) in assay [1] was 17 nM.

On to `O=C(C(Nc1ccccc1F)c1ccc(C(F)(F)F)cc1)N1CCC[C@@H]1c1ccccc1F` (mixture of isomers), for which the IC50 in assay [1] amounted to 44 nM.

On to `O=C(C(Nc1ccccc1F)c1ccc(C(F)(F)F)cc1)N1CCC[C@H]1c1ccccc1F` (mixture of isomers), for which the inhibition in vivo at 30 mg/kg in assay [2] turned out to be 63%. Besides, the half-maximal inhibitory concentration (IC50) in assay [1] amounted to 8 nM.

In the case of `O=C(C(Nc1ccccc1F)c1ccc(C(F)(F)F)cc1)N1CCC[C@H]1c1ccccc1` (mixture of isomers), in assay [2], the inhibition in vivo at 30 mg/kg stood at 56%. Further, the concentration for half-maximal inhibition (IC50) in assay [1] turned out to be 5 nM.

On to `O=C(C(Nc1ccccc1)c1ccc(C(F)(F)F)cc1)N1CCC[C@@H]1c1ccccc1Cl` (mixture of isomers), for which, in assay [1], the concentration for half-maximal inhibition (IC50) turned out to be 168 nM.

For the compound `O=C(C(Nc1ccccc1)c1ccc(C(F)(F)F)cc1)N1CCC[C@H]1c1ccccc1Cl` (mixture of isomers), the 50% inhibitory concentration (IC50) in assay [1] worked out at 41 nM.

On to `O=C(C(Nc1ccccc1F)c1ccc(-c2ccncc2)cc1)N1CCCC1c1ccccc1F` (racemic), for which the IC50 in assay [1] was 25 nM.

Take `O=C(O)c1ccc(C2CCCN2C(=O)C(Nc2ccccc2F)c2cc3ccccc3s2)cc1` (racemic): the IC50 in assay [1] turned out to be 41 nM.

For `O=C(O)c1cccc(C2CCCN2C(=O)C(Nc2ccccc2F)c2ccc(C(F)(F)F)cc2)c1` (racemic), the half-inhibitory concentration (IC50) in assay [1] stood at 40 nM.

On to `O=C(C(Nc1ccccc1F)c1ccc(C(F)(F)F)cc1)N1CCCC1c1ccccc1Cl` (racemic), for which the IC50 in assay [1] was 11 nM.

With `O=C(C(Nc1ccccc1F)c1ccc(C(F)(F)F)cc1)N1CCCC1c1ccccc1F` (racemic), the IC50 in assay [1] worked out at 7 nM.

Source of the values: ChEMBL document CHEMBL2346592, “Arylglycine derivatives as potent transient receptor potential melastatin 8 (TRPM8) antagonists” (Bioorg Med Chem Lett, 2013).
